Where “and” joins values, the source holds several entries; their conditions need not be identical. Identical values can stand only once. Like-named read-outs stand apart in the source and are kept apart here.
Key:
[1] = molecular target: T1, hDAT (Homo sapiens, UniProt Q01959); experiment: Uptake inhibition assay in HEK293 cells expressing hDAT; assay type: cell-based
T1 construct: expressed in transfected cells
Method: (§1) Human embryonic kidney 293 cells (HEK293 cells) were cultivated in Dulbecco’s Modified Eagle Medium (DMEM), containing 10% heat-inactivated fetal calf serum (FCS; 100 mL/L), streptomycin (100 μg/100 mL) and penicillin ([…]). Geneticin (50 μg/mL) was added to select cells stably expressing the human isoforms of dopamine, norepinephrine and serotonin transporter (hDAT, hNET, and hSERT, respectively) as described earlier. Cell lines were maintained in culture in humidified atmosphere (37 °C, 5% CO2), and passaged when reached 80–90% confluency. Cells expressing the desired transporter were seeded the day before the experiment (40,000 cells per well) or two days before the experiments (20,000 cells per well) onto poly-D-lysine (PDL)-coated 96-well plates.
(§2) Uptake inhibition experiments were carried out as reported previously. Ninety-six-well plates containing hDAT-, hNET- or hSERT-expressing cells were washed with Krebs-HEPES buffer (KHB; 25 mM HEPES, 120 mM NaCl, 5 mM KCl, 1.2 mM CaCl2, and 1.2 mM MgSO4 and 5 mM D-glucose, pH = 7.3). Cells were then preincubated with increasing concentrations of the compound diluted in KHB for 6 min. Following the pre-incubation of the cells with the compound, the tritiated substrate (hDAT: 0.15 μM [^3H]DA; hNET: 0.05 μM [^3H]MPP^+; hSERT: 0.1 μM [^3H]5-HT) was added to the wells. The uptake was terminated by removal of tritiated substrate and by washing the cells with ice-cold KHB after 1 min (for hDAT and hSERT) or 3 min (for hNET). Thereafter, 200 μL of Ultima Gold^TM XR scintillation cocktail (PerkinElmer, MA, USA) was added, the plates were shaken and the radioactivity accumulated into the cells determined in a Wal-lac 1450 MicroBeta TriLux Liquid Scintillation Counter & Lumi (GMI, Ramsey, MN, USA). Non- specific tritiated substrate uptake was measured in the presence of 100 μM cocaine (for hDAT and hNET) or 10 μM paroxetine (for hSERT), and subtracted from the data. Uptake in the presence of test drugs was normalized to the uptake in the presence of the vehicle.

[2] = molecular target: T2, hNET (Homo sapiens, UniProt P23975); experiment: Uptake inhibition assay in HEK293 cells expressing hNET; assay type: cell-based
T2 construct: expressed in transfected cells
Method: as §1, §2

[3] = Plasma and brain compound levels and pharmacokinetic parameters after i.p. administration; assay type: in vivo, male Sprague–Dawley rats; details: rat, 10 mg/kg i.p.; for concentration at 10 h: read-out: Clast
Method: The bioavailability of (S)-MK-26 after intraperitoneal (i.p.) administration in male Sprague–Dawley rats (260–351 g) was outsourced to Evotec (Toulouse CEDEX, France, Study Number VDD10431). (S)-MK-26 at dose of 10 mg/kg of body weight was i.p. administered and blood samples and brains were collected at 0.083, 0.25, 0.5, 1, 3, 7, 10, and 24 h post-administration (3 rats per time point). Plasma and brain levels of (S)-MK-26 were measured by LC-MS by a standard validated protocol defined by the contractor, and the pharmacokinetic parameters were calculated from individual concentrations by WinNonLin7.0 (Phoenix64), a non-compartmental model.

[4] = tested on: naive young (12 weeks) male rats; experiment: Open field, spontaneous locomotor activity; assay type: in vivo, rat
Method: Animals were habituated to the experimental room twenty-four hours prior to the start of the experiment. The open field consisted of a black wooden board (1.20 m × 1.20 m) surrounded by white wooden walls (50 cm in height); light was adjusted to 150 lux. Each animal was placed in the middle of the open-field arena (animal experiments conducted under BMBWF-66.009/235/V/3b/2018 regulations) and behavior was recorded for 10 min. Data analysis was performed using the AnyMaze software (Stoelting Co., IL, USA). The test consisted of one habituation session on the first day and one test session on the following day. Each animal received (S)-MK-26 at 10, 20, 0 and 1 mg/kg of body weight with wash-out period of nine days between each treatment.

[5] = male, Sprague-Dawley, ip, brain
[6] = male, Sprague-Dawley, ip, plasma

T1 sequence (Q01959 whole entry): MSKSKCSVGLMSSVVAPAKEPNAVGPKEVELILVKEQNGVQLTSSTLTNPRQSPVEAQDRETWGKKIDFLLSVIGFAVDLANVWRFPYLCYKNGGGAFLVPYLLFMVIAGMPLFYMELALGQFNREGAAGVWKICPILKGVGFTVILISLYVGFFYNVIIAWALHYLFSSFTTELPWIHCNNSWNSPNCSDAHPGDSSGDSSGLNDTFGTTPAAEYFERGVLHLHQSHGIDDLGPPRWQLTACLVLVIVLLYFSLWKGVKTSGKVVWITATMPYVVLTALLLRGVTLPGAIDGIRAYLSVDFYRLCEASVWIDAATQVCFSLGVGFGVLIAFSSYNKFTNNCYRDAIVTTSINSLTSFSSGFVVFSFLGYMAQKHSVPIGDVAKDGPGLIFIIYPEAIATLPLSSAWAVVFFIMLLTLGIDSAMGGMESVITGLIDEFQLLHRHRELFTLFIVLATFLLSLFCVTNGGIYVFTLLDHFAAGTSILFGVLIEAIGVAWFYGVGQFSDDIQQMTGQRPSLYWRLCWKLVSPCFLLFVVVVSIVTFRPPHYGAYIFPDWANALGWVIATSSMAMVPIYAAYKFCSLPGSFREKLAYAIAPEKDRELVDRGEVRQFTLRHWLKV
T2 sequence (P23975 whole entry): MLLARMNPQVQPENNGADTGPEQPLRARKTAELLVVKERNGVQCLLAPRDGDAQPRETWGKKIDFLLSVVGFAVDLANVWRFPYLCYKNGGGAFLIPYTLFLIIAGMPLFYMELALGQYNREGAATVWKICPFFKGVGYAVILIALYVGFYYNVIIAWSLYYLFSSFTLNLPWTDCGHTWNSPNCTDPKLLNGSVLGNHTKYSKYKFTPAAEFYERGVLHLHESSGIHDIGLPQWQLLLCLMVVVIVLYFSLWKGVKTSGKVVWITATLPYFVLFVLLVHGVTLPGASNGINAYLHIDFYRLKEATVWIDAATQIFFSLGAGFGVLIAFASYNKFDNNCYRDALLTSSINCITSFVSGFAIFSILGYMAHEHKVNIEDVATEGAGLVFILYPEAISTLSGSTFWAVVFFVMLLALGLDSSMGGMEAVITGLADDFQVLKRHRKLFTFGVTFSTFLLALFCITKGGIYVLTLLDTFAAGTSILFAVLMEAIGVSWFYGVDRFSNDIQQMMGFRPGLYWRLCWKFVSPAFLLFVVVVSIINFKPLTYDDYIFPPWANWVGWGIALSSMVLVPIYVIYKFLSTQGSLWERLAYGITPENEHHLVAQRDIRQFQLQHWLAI

Structure (SMILES): [O-][S@@+](Cc1cncs1)C(c1cccc(Cl)c1)c1cccc(Cl)c1 [(S)-MK-26, (S)-5-(((B(3-chlorophenyl)methyl)sulphinyl)methyl)thiazole]
- IC50 [1]: 0.56 µM
- fold lower hDAT IC50 compared to (R)-MK-26 ([1]; uptake inhibition, HEK293): approximately 65 fold
- fold lower hDAT IC50 compared to (R)-Modafinil ([1]; uptake inhibition, HEK293): 10 fold
- IC50 [2]: 63.5 µM
- detectable up to (time) ([3]; brain and plasma): 10 h
- Tlast ([3]; brain): 10.0 h
- time of maximum mean brain concentration ([3]; brain): 15 min
- maximum mean brain concentration ([3]; brain, at 15 min): 634 ± 140 ng/g
- Kp ([3]; male, Sprague-Dawley, brain and plasma, ip, read-out: mean brain to plasma concentration ratio): 1.12 ± 0.19
- AUC(0-t) [3, 5]: 1960 ng·h/mL and 5.14 µM·h
- Cmax [3, 5]: 634 ng/mL and 1.67 µM
- Tmax [3, 5]: 15 min
- concentration at 10 h [3, 5]: 19.2 nM
- AUC(0-t) [3, 6]: 1710 ng·h/mL and 4.5 µM·h
- Cmax [3, 6]: 624 ng/mL and 1.64 µM
- Tmax [3, 6]: 30 min
- concentration at 10 h [3, 6]: 15.7 nM
- Tlast ([3]; plasma): 10.0 h
- time to peak mean plasma concentration ([3]; plasma): ≤ 30 min
- adverse effects during the pharmacokinetic study [3]: No adverse effects were observed
- effect on total distance travelled over 10 min ([4]; 1, 10, 20 mg/kg vs vehicle): no effect
- activity (distance travelled) within the initial 5 min of the test session ([4]; highest dose (20 mg/kg), p = 0.0236): moderately increased activity
- stereotypic or anxiogenic behavior ([4]; open field, 1, 10, 20 mg/kg): did not induce stereotypic or anxiogenic behavior
